Laboratory results: PubChem BioAssay AID1963830 (Molecular Pharmacology Branch, DTP, NCI, 2024)
pIC50: −log10 of the molar value.

Tested on: 922993-354-T-J3-PDC complex spheroid viability
Test: Anticancer human tumor 922993-354-T-J3-PDC patient-derived endometrial carcinoma cell line growth inhibition [POLQ]
Conditions: for pIC50: curve of first compound; for viability, T/C: stronger effect = lower value
Description: Multicellular complex tumor spheroid response to Polymerase (POL) inhibitors (novobiocin, ART-558, RP6685) in combination with a variety of drugs and investigational agents in selected tumor cell lines
The POL inhibitors (novobiocin, ART-558, and RP6685) were evaluated both individually and in combination with standard of care and investigational anticancer small molecules within a complex spheroid model of solid tumors. . Complex spheroids include a stromal component modeled by human endothelial cells (HUVEC) and fibroblasts modeled by human mesenchymal stem cells (MSCs). The concentration ranges selected for each drug and investigational agent were based upon clinically achievable concentrations if the clinical Cmax of the agent was known.
Compounds. The drugs and investigational agents: novobiocin (NSC847541), ART-558 (NSC835418), RP-6685 (NSC848927), peposertib (NSC802822), ceralasertib (NSC780249), elimusertib (NSC800525), camonsertib (NSC841442), AZD-1390 (NSC803789), olaparib (NSC753686), talazoparib (NSC767125), rucaparib (NSC756644), sotorasib (NSC818433), MRTX-1133 (NSC836407), SN-38 (NSC673596), topotecan (NSC609699), epotoside (NSC141540), doxorubicin (NSC123127), gemcitabine (NSC613327), 5-fluorouracil (NSC19893), paclitaxel (NSC125973), vemurafenib (NSC761431), MSA-2 (NSC828583), SN-011 (NSC837082), adavosertib (NSC754352), prexasertib (NSC758257), carboplatin (NSC241240) and oxaliplatin (NSC266046), were obtained from the National Cancer Institute (NCI) Developmental Therapeutics Program Chemical Repository (21). The FDA-approved anticancer drug set is available from the Developmental Therapeutics Program at https://dtp.cancer.gov/organization/dscb/obtaining/. […] The stock solutions were prepared in dimethyl sulfoxide (DMSO, Sigma-Aldrich, St. Louis, MO, cat. D2650), except for the platinum compounds which were prepared in saline (Quality Biological, Gaithersburg, MD, cat. 114-055-101), at 800-fold the tested concentration and stored at -70 degrees C prior to their use. All drugs and investigational agents were tested over a range starting from a high concentration at or near the clinical Cmax and decreasing in half-log increments. If the clinical Cmax for an agent had not been determined, the highest concentration tested was 10 microM, except for SN-38, which was tested at a high concentration of 1 microM.
Cell Culture. All cells were maintained in an incubator at 37 degrees C and 5% CO2 with 95% humidity. The PDC lines were cultured according to standard operating procedures established by the NCI PDMR (https://pdmr.cancer.gov). Table 3 of the manuscript, lists the cell lines along with the number of the three cell types plated to form the mct-spheroids and media for tumor cell growth. After thawing, all PDC lines, except 997537-175-T-J1-PDC and 415267-285-R-J2-PDC, were cultured in Matrigel-coated flasks prepared with a working solution of 1X Ham's F-12 nutrient mix, without supplementation (Thermo Fisher Scientific, cat. 11765054), 100 U/mL penicillin-streptomycin (Thermo Fisher Scientific, cat. 15140122), and 2.5% Matrigel (Corning Inc., Corning, NY, cat. 354248) for the first three passages. The two PDC lines 997537-175-T-J1-PDC and 415267-285-R-J2-PDC were cultured on uncoated flasks. The 857933-349-R-J2-PDC line was cultured in 6C/Colon 1B media containing advanced DMEM/F-12 (Thermo Fisher Scientific, cat. 12634028), 10 mM HEPES (Thermo Fisher Scientific, cat. 15630080), 1X GlutaMAX supplement (Thermo Fisher Scientific, cat. 35050061), 0.1 mg/mL primocin (InvivoGen, San Diego, CA, cat. ant-pm-2), 10% defined fetal bovine serum, heat inactivated (HyClone Laboratories Inc., Logan, UT, cat. SH30070.03HI), 50% L-WRN conditioned media (ATCC, cat. CRL-3276), 1.25 mM N-Acetyl-L-cysteine (Sigma-Aldrich, cat. A9165), 10 mM nicotinamide (Sigma-Aldrich, cat. N0636), 1X B-27 supplement (Thermo Fisher Scientific, cat. 17504044), 1X N-2 supplement (Thermo Fisher Scientific, cat. […]

[1] = second compound 0.0316 µM, first compound 0.0316 µM
[2] = second compound 0.0316 µM, first compound 0.1 µM
[3] = second compound 0.0316 µM, first compound 0.316 µM
[4] = second compound 0.0316 µM, first compound 1 µM
[5] = second compound 0.0316 µM, first compound 3.16 µM
[6] = second compound 0.0316 µM, first compound 10 µM
[7] = second compound 0.1 µM, first compound 0.0316 µM
[8] = second compound 0.1 µM, first compound 0.1 µM
[9] = second compound 0.1 µM, first compound 0.316 µM
[10] = second compound 0.1 µM, first compound 1 µM
[11] = second compound 0.1 µM, first compound 3.16 µM
[12] = second compound 0.1 µM, first compound 10 µM
[13] = second compound 0.316 µM, first compound 0.0316 µM
[14] = second compound 0.316 µM, first compound 0.1 µM
[15] = second compound 0.316 µM, first compound 0.316 µM
[16] = second compound 0.316 µM, first compound 1 µM
[17] = second compound 0.316 µM, first compound 3.16 µM
[18] = second compound 0.316 µM, first compound 10 µM
[19] = second compound 1 µM, first compound 0.0316 µM
[20] = second compound 1 µM, first compound 0.1 µM
[21] = second compound 1 µM, first compound 0.316 µM
[22] = second compound 1 µM, first compound 1 µM
[23] = second compound 1 µM, first compound 3.16 µM
[24] = second compound 1 µM, first compound 10 µM
[25] = second compound 3.16 µM, first compound 0.0316 µM
[26] = second compound 3.16 µM, first compound 0.1 µM
[27] = second compound 3.16 µM, first compound 0.316 µM
[28] = second compound 3.16 µM, first compound 1 µM
[29] = second compound 3.16 µM, first compound 3.16 µM
[30] = second compound 3.16 µM, first compound 10 µM
[31] = second compound 10 µM, first compound 0.0316 µM
[32] = second compound 10 µM, first compound 0.1 µM
[33] = second compound 10 µM, first compound 0.316 µM
[34] = second compound 10 µM, first compound 1 µM
[35] = second compound 10 µM, first compound 3.16 µM
[36] = second compound 10 µM, first compound 10 µM
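Further: spheroids exposed to the agents for one week.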
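Wherever viability, T/C is given: 100% = DMSO vehicle control wells.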

CC(=O)O[C@H]1C(=O)[C@@]2(C)[C@H]([C@H](OC(=O)c3ccccc3)[C@]3(O)C[C@H](OC(=O)[C@H](O)[C@@H](NC(=O)c4ccccc4)c4ccccc4)C(C)=C1C3(C)C)[C@]1(OC(C)=O)CO[C@@H]1C[C@@H]2O + COC1C(OC(N)=O)C(O)C(Oc2ccc3c(O)c(NC(=O)c4ccc(O)c(CC=C(C)C)c4)c(=O)oc3c2C)OC1(C)C
pIC50 (second compound 0.0316 µM): 5.58
pIC50 (second compound 0.1 µM): < 5.52
pIC50 (second compound 0.316 µM): 5.52
pIC50 (second compound 1 µM): < 5.52
pIC50 (second compound 3.16 µM): < 5.52
pIC50 (second compound 10 µM): 5.70
viability, T/C (second compound 0.0316 µM, first compound 0.00949 µM): 97%
viability, T/C (second compound 0.0316 µM, first compound 0.03 µM): 96.3%
viability, T/C (second compound 0.0316 µM, first compound 0.0949 µM): 95.1%
viability, T/C (second compound 0.0316 µM, first compound 0.3 µM): 105%
viability, T/C (second compound 0.0316 µM, first compound 0.949 µM): 85.5%
viability, T/C (second compound 0.0316 µM, first compound 3 µM): 45.6%
viability, T/C (second compound 0.1 µM, first compound 0.00949 µM): 102%
viability, T/C (second compound 0.1 µM, first compound 0.03 µM): 101%
viability, T/C (second compound 0.1 µM, first compound 0.0949 µM): 107%
viability, T/C (second compound 0.1 µM, first compound 0.3 µM): 106%
viability, T/C (second compound 0.1 µM, first compound 0.949 µM): 83.6%
viability, T/C (second compound 0.1 µM, first compound 3 µM): 55.8%
viability, T/C (second compound 0.316 µM, first compound 0.00949 µM): 97.1%
viability, T/C (second compound 0.316 µM, first compound 0.03 µM): 118%
viability, T/C (second compound 0.316 µM, first compound 0.0949 µM): 104%
viability, T/C (second compound 0.316 µM, first compound 0.3 µM): 97.7%
viability, T/C (second compound 0.316 µM, first compound 0.949 µM): 80.5%
viability, T/C (second compound 0.316 µM, first compound 3 µM): 49.8%
viability, T/C (second compound 1 µM, first compound 0.00949 µM): 96.9%
viability, T/C (second compound 1 µM, first compound 0.03 µM): 99.4%
viability, T/C (second compound 1 µM, first compound 0.0949 µM): 104%
viability, T/C (second compound 1 µM, first compound 0.3 µM): 104%
viability, T/C (second compound 1 µM, first compound 0.949 µM): 79.9%
viability, T/C (second compound 1 µM, first compound 3 µM): 53.2%
viability, T/C (second compound 3.16 µM, first compound 0.00949 µM): 99.2%
viability, T/C (second compound 3.16 µM, first compound 0.03 µM): 92.8%
viability, T/C (second compound 3.16 µM, first compound 0.0949 µM): 101%
viability, T/C (second compound 3.16 µM, first compound 0.3 µM): 99.3%
viability, T/C (second compound 3.16 µM, first compound 0.949 µM): 76.9%
viability, T/C (second compound 3.16 µM, first compound 3 µM): 54.9%
viability, T/C (second compound 10 µM, first compound 0.00949 µM): 84.7%
viability, T/C (second compound 10 µM, first compound 0.03 µM): 82.2%
viability, T/C (second compound 10 µM, first compound 0.0949 µM): 94.9%
viability, T/C (second compound 10 µM, first compound 0.3 µM): 68.9%
viability, T/C (second compound 10 µM, first compound 0.949 µM): 64%
viability, T/C (second compound 10 µM, first compound 3 µM): 43.3%

COc1cccc2c1C(=O)c1c(O)c3c(c(O)c1C2=O)CC(O)(C(=O)CO)CC3OC1CC(N)C(O)C(C)O1 (stereo unspecified) + COC1C(OC(N)=O)C(O)C(Oc2ccc3c(O)c(NC(=O)c4ccc(O)c(CC=C(C)C)c4)c(=O)oc3c2C)OC1(C)C
pIC50 (second compound 0.0316 µM): 5.87
pIC50 (second compound 0.1 µM): 6.00
pIC50 (second compound 0.316 µM): 5.97
pIC50 (second compound 1 µM): 6.05
pIC50 (second compound 3.16 µM): 6.05
pIC50 (second compound 10 µM): 6.14
viability, T/C [1]: 104%
viability, T/C [2]: 88.8%
viability, T/C [3]: 80.7%
viability, T/C [4]: 53.3%
viability, T/C [5]: 33.9%
viability, T/C [6]: 10.1%
viability, T/C [7]: 97.2%
viability, T/C [8]: 101%
viability, T/C [9]: 88.6%
viability, T/C [10]: 48%
viability, T/C [11]: 21.8%
viability, T/C [12]: 8.62%
viability, T/C [13]: 105%
viability, T/C [14]: 91.9%
viability, T/C [15]: 77.3%
viability, T/C [16]: 50.7%
viability, T/C [17]: 28.7%
viability, T/C [18]: 12.9%
viability, T/C [19]: 102%
viability, T/C [20]: 96.1%
viability, T/C [21]: 68.7%
viability, T/C [22]: 45.8%
viability, T/C [23]: 30.9%
viability, T/C [24]: 10.7%
viability, T/C [25]: 94.5%
viability, T/C [26]: 100%
viability, T/C [27]: 87.1%
viability, T/C [28]: 44.7%
viability, T/C [29]: 21.6%
viability, T/C [30]: 10.8%
viability, T/C [31]: 86.4%
viability, T/C [32]: 90.8%
viability, T/C [33]: 68.7%
viability, T/C [34]: 41.1%
viability, T/C [35]: 22.8%
viability, T/C [36]: 10.4%

O=c1[nH]cc(F)c(=O)[nH]1 + COC1C(OC(N)=O)C(O)C(Oc2ccc3c(O)c(NC(=O)c4ccc(O)c(CC=C(C)C)c4)c(=O)oc3c2C)OC1(C)C
pIC50 (second compound 0.0316 µM): 5.60
pIC50 (second compound 0.1 µM): 5.64
pIC50 (second compound 0.316 µM): 5.67
pIC50 (second compound 1 µM): 5.65
pIC50 (second compound 3.16 µM): 5.68
pIC50 (second compound 10 µM): 5.68
viability, T/C [1]: 109%
viability, T/C [2]: 100%
viability, T/C [3]: 108%
viability, T/C [4]: 108%
viability, T/C [5]: 36.1%
viability, T/C [6]: 16%
viability, T/C [7]: 105%
viability, T/C [8]: 107%
viability, T/C [9]: 95.2%
viability, T/C [10]: 99.6%
viability, T/C [11]: 30.7%
viability, T/C [12]: 14.9%
viability, T/C [13]: 105%
viability, T/C [14]: 94.9%
viability, T/C [15]: 105%
viability, T/C [16]: 87.9%
viability, T/C [17]: 30.8%
viability, T/C [18]: 13.1%
viability, T/C [19]: 108%
viability, T/C [20]: 98.9%
viability, T/C [21]: 106%
viability, T/C [22]: 107%
viability, T/C [23]: 26.9%
viability, T/C [24]: 13.1%
viability, T/C [25]: 91.3%
viability, T/C [26]: 96.7%
viability, T/C [27]: 108%
viability, T/C [28]: 88.2%
viability, T/C [29]: 28.2%
viability, T/C [30]: 13.8%
viability, T/C [31]: 94.5%
viability, T/C [32]: 91.9%
viability, T/C [33]: 86%
viability, T/C [34]: 83.7%
viability, T/C [35]: 31.6%
viability, T/C [36]: 18.1%
